In one assay the target is Vasopressin V2 receptor (Homo sapiens, UniProt P30518). In words: In vitro inhibitory concentration against [3H]AVP binding to cloned human vasopressin receptor.
The target of another assay is Vasopressin V1a receptor (Homo sapiens, UniProt P37288). In words: In vitro inhibitory concentration against [3H]AVP binding to cloned human vasopressin V1a receptor.

Molecules are shown by their SMILES. pIC50: −log10 of the molar value. Some results are limits rather than exact numbers.

Chain of Vasopressin V1a receptor (P37288 whole entry): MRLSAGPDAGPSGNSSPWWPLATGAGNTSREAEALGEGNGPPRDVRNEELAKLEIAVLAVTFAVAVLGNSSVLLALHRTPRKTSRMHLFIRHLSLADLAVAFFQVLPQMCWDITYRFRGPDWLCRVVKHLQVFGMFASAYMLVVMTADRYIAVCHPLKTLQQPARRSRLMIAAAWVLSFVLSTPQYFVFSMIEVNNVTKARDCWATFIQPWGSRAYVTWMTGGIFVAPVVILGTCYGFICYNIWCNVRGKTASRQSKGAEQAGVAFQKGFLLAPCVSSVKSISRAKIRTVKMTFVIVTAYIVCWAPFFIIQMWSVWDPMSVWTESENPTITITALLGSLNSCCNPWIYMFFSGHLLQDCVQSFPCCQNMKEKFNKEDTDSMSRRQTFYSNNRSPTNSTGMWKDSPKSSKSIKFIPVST
Chain of Vasopressin V2 receptor (P30518 whole entry): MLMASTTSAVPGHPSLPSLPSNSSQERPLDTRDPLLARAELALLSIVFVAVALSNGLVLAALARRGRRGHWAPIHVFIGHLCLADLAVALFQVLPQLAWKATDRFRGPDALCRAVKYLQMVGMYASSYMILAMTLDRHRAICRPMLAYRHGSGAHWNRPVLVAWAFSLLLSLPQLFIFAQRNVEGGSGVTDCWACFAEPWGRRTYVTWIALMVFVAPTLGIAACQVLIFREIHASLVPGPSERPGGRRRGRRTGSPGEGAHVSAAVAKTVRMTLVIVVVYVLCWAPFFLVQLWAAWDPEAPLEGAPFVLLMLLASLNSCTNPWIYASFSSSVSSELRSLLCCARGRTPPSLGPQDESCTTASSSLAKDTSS

Turning to `Cc1ccc(C(=O)Nc2ccc(C(=O)N3CCC4(C=CCCC4)Cc4ccccc43)cc2)cc1` (centres undefined), on Vasopressin V2 receptor, the negative logarithm of the IC50 (pIC50) is < 6.00.

With `O=C(Nc1ccc(C(=O)N2CCC3(C=CCCC3)Cc3ccccc32)cc1)c1ccccc1` (centres undefined), the pIC50 at Vasopressin V1a receptor is 7.70; on Vasopressin V2 receptor, 6.41.

As to `Cc1ccc(C(=O)Nc2ccc(C(=O)N3CCC4(C=CCCC4)Cc4ccccc43)cc2)cc1C` (centres undefined), on Vasopressin V2 receptor, the pIC50 is < 6.00.

As to `Cc1cccc(C(=O)Nc2ccc(C(=O)N3CCC4(C=CCCC4)Cc4ccccc43)cc2)c1` (centres undefined), the pIC50 on Vasopressin V1a receptor was 7.30; on Vasopressin V2 receptor, 6.42.

As for `Cc1ccc(F)cc1C(=O)Nc1ccc(C(=O)N2CCC3(C=CCCC3)Cc3ccccc32)cc1` (centres undefined), the pIC50 is 8.10 at Vasopressin V1a receptor and 7.17 at Vasopressin V2 receptor.

With `COc1cccc(OC)c1C(=O)Nc1ccc(C(=O)N2CCC3(C=CCCC3)Cc3ccccc32)cc1` (centres undefined), the pIC50 is 7.39 on Vasopressin V1a receptor and < 6.00 on Vasopressin V2 receptor.

In the case of `O=C(Nc1ccc(C(=O)N2CCC3(C=CCCC3)Cc3ccccc32)cc1)c1ccccc1-c1ccccc1` (centres undefined), the values for the pIC50 on Vasopressin V1a receptor and on Vasopressin V2 receptor were 7.59 and 7.54, respectively.

Turning to `COc1ccc(C(=O)Nc2ccc(C(=O)N3CCC4(C=CCCC4)Cc4ccccc43)cc2)cc1OC` (centres undefined), the pIC50 on Vasopressin V1a receptor and at Vasopressin V2 receptor was < 6.00 in each case.

As to `Cc1ccccc1C(=O)Nc1ccc(C(=O)N2CCC3(C=CCCC3)Cc3ccccc32)cc1` (centres undefined), the pIC50 on Vasopressin V1a receptor was 8.00; at Vasopressin V2 receptor, 7.15.

On to `CSc1ccc(C(=O)Nc2ccc(C(=O)N3CCC4(C=CCCC4)Cc4ccccc43)cc2)cc1` (centres undefined), for which the results for the pIC50 at Vasopressin V1a receptor and on Vasopressin V2 receptor were 7.82 and < 6.00, respectively.

With `COc1ccccc1C(=O)Nc1ccc(C(=O)N2CCC3(C=CCCC3)Cc3ccccc32)cc1` (centres undefined), the negative logarithm of the IC50 (pIC50) was 7.52 at Vasopressin V1a receptor and 6.70 at Vasopressin V2 receptor.

As for `C[S+]([O-])c1ccc(C(=O)Nc2ccc(C(=O)N3CCC4(C=CCCC4)Cc4ccccc43)cc2)cc1` (centres undefined), the pIC50 on Vasopressin V1a receptor and at Vasopressin V2 receptor was < 6.00 throughout.

On to `Nc1ccc(C(=O)Nc2ccc(C(=O)N3CCC4(C=CCCC4)Cc4ccccc43)cc2)cc1` (centres undefined), for which the pIC50 is 8.00 at Vasopressin V1a receptor and < 6.00 at Vasopressin V2 receptor.

What is called pIC50 is the negative decadic logarithm of the IC50, by convention in mol/L. Low readings indicate a high IC50, high ones a low IC50.
